In patent publication US5705356A, “Reagent for invitro diagnostic determination of bicarbonate” (Trace Scientific Limited, priority 1993, dated 1998):

How the values were obtained:
[1] = target: T1, Glycerol Dehydrogenase (GLY.DH) (Geobacillus stearothermophilus, UniProt P32816); test: Relative activity of substrates with glycerol dehydrogenase (vs glycerol); assay type: biochemical; settings: relative to glycerol (100%)
T1 sequence (P32816 1-370): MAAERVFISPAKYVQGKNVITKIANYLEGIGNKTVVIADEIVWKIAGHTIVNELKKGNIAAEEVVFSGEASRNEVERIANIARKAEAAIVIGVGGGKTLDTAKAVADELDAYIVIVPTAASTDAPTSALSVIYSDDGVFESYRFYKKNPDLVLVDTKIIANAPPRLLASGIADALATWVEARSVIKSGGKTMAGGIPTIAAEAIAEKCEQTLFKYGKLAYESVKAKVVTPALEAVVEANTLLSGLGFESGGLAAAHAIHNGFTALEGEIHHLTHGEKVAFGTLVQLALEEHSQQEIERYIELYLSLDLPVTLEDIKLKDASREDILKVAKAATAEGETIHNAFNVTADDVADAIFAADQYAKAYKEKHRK
Excerpt: Alternatively, using Glycerol Dehydrogenase (GLY.DH) as the enzyme, suitable substrates in the reaction [drawing 8] and their activity relative to glycerol (100%) are

G-6-P-DH = target: T2, G-6-P-DH (Saccharomyces cerevisiae, UniProt P11412); test: Relative reactivity of substrates with G-6-P-DH, NADP as coenzyme (vs G-6-P); assay type: biochemical, Yeast; settings: relative to G-6-P-DH/G-6-P pair
T2 sequence (P11412 1-505): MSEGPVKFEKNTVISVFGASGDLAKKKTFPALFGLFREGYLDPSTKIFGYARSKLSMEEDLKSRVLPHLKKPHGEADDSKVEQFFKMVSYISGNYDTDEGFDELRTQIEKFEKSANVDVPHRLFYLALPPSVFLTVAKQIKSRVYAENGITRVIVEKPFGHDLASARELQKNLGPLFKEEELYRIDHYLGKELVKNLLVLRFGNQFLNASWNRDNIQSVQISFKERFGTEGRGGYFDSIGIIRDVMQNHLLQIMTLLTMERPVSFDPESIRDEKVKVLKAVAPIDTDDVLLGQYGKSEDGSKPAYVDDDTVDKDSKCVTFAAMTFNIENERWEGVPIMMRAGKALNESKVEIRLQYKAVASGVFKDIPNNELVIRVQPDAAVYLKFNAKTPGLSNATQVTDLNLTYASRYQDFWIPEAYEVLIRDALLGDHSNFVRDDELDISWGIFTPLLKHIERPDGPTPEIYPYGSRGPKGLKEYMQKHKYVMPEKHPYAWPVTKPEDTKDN

[2] = system: Glucose Dehydrogenase (GLD); test: Relative activity of substrates with glucose dehydrogenase (vs D-glucose); assay type: biochemical; settings: rate of reaction relative to D-glucose (100%), NAD coenzyme
Excerpt: If glucose dehydrogenase is used as the enzyme, preferred substrates for reduction of the NAD coenzyme and their relative degree of cross reactivity when compared to D-Glucose are:

[3] = target: T3, 3α-Hydroxysteroid Dehydrogenase (H.DH) (Comamonas testosteroni, UniProt P80702); test: Relative activity of substrates with 3α-hydroxysteroid dehydrogenase (vs cholic acid); assay type: biochemical; settings: relative to Cholic Acid
T3 sequence (P80702 1-257): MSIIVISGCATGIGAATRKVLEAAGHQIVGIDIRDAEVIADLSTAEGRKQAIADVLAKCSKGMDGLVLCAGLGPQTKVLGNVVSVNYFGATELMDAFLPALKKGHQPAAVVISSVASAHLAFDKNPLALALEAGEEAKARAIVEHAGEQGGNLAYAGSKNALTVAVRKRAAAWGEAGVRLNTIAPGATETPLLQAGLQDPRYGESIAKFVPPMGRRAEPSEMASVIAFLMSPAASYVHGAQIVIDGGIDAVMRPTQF
Excerpt: Their activities relative to Cholic Acid are also listed.

[4] = target: T4, Leucine Dehydrogenase (L.D) (Bacillus cereus, UniProt P0A393); test: Relative activity of substrates with leucine dehydrogenase (vs L-leucine); assay type: biochemical; settings: relative to L-leucine (100%)
T4 sequence (P0A393 1-366): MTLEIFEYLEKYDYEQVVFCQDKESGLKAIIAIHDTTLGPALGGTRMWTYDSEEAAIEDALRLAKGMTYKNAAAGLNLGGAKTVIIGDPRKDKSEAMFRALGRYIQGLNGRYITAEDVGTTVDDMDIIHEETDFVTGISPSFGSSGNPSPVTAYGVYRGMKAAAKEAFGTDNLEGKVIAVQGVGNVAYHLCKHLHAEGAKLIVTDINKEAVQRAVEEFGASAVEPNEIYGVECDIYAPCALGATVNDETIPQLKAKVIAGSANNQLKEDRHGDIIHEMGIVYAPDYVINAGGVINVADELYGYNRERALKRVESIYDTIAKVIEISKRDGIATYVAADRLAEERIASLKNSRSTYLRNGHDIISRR
Excerpt: Wherein Leucine Dehydrogenase (L.D) is used as the enzyme according to the reaction [drawing 9] suitable substrates and their activity relative to L-leucine (100%) are

[5] = target: T5, L-Alanine Dehydrogenase (A.D) (Lysinibacillus sphaericus, UniProt P17556); test: Relative activity of substrate with L-alanine dehydrogenase (vs L-alanine); assay type: biochemical; settings: relative to L-alanine (100%)
T5 sequence (P17556 1-372): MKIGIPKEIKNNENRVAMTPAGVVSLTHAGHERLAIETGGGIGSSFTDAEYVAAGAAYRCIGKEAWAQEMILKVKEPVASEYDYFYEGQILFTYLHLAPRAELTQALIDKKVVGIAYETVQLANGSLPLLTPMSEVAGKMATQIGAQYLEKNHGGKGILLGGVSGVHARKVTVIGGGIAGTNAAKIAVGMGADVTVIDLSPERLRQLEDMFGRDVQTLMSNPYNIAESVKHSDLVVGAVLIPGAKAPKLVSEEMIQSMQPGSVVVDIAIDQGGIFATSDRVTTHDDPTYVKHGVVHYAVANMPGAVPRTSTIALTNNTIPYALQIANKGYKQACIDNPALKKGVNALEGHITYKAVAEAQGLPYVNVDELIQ
Excerpt: If L-Alanine Dehydrogenase (A.D) is used as the enzyme in a reaction system similar to that used for Leucine Dehydrogenase, a suitable substrate and its activity relative to L-alanine (100%) is […]

[6] = system: L-Lactate Dehydrogenase (LDH); test: Relative activity of substrates with L-lactate dehydrogenase (vs L-lactate); assay type: biochemical, Lactobacillus sp.; settings: relative to L-Lactate
Excerpt: Wherein, L-Lactate Dehydrogenase (LDH) from Lactobacillus sp. is used as the enzyme in the following reaction, [drawing 10] suitable substrates and their activity relative to L-Lactate are:

`OCC(O)CCl` (stereo not drawn) [Glycerol-α-monochlorohydrin] was tested, and the “Relative Activity” value [1] was 48.5%.

`O=P(O)(O)OC[C@H]1OC(O)C[C@@H](O)[C@@H]1O` (some centres unmarked) [2-deoxyglucose-6-P] gave a relative reactivity (G-6-P-DH) of 18%.

For `OC[C@H]1O[C@@H](O)[C@H](O)[C@@H](O)[C@@H]1O` [D-Glucose], the “Relative Activity” value [2] was 100%.

`OC[C@H]1OC(O)[C@H](O)[C@@H](O)[C@H]1O` (stereo partly drawn) [D-galactose] was tested, and the “Relative Activity” value [2] was 0.1%.

With `O=C(CO)[C@@H](O)[C@H](O)[C@@H](O)CO` [L-sorbose] the “Relative Activity” value [2] was 0.3%.

For `OCCO` [Ethylene glycol], the “Relative Activity” value [1] was 7.8%.

With `O=C(CO)[C@@H](O)[C@H](O)[C@H](O)CO` [D-fructose] the “Relative Activity” value [2] was 0.8%.

For `OCC(O)CO` [glycerol], the “Relative Activity” value [1] was 100%.

With Etiocholic Acid the “Relative Activity” value [3] was 60%.

In the case of `N[C@@H](CS)C(=O)O` [L-Cysteine], the “Relative Activity” value [4] is reported as 0.3%.

`C[C@H](CCC(=O)O)[C@H]1CC[C@H]2[C@@H]3CC[C@@H]4C[C@H](O)CC[C@]4(C)[C@H]3CC[C@]12C` [Lithocholic Acid] was tested, and the “Relative Activity” value [3] was 96%.

With `CCC[C@H](N)C(=O)O` [L-Norvaline] the “Relative Activity” value [4] was 41%.

In the case of `CC[C@H](C)[C@H](N)C(=O)O` [L-Isoleucine], the “Relative Activity” value [4] is reported as 58%.

Work on `N[C@H]1C(O)O[C@H](COP(=O)(O)O)[C@@H](O)[C@@H]1O` (some centres unmarked) [glucosamine-6-P] yielded a relative reactivity (G-6-P-DH) of 2%.

For `OC[C@H]1O[C@@H](O[C@H]2[C@H](O)[C@@H](O)C(O)O[C@@H]2CO)[C@H](O)[C@@H](O)[C@H]1O` (stereo partly drawn) [D-lactose], the “Relative Activity” value [2] was 1.2%.

For `OC[C@H]1O[C@H](O[C@H]2[C@H](O)[C@@H](O)[C@H](O)O[C@@H]2CO)[C@H](O)[C@@H](O)[C@@H]1O` [maltose], the “Relative Activity” value [2] was 3.9%.

For `O[C@H]1[C@H](O)[C@@H](O)[C@H](O)[C@@H](O)[C@H]1O` [inositol], the “Relative Activity” value [2] was 0.2%.

In the case of `O=P(O)(O)OC[C@H]1OC(O)[C@H](O)[C@@H](O)[C@H]1O` (some centres unmarked) [galactose-6-P], the relative reactivity (G-6-P-DH) is reported as 25%.

With `N[C@@H](CO)C(=O)O` [L-serine] the “Relative Activity” value [5] was 5%.

`CC(C)C[C@H](N)C(=O)O` [L-leucine] was tested, and the “Relative Activity” value [4] was 100%.

With `OC[C@H]1OC(O)[C@@H](O)[C@@H](O)[C@@H]1O` (stereo partly drawn) [D-mannose] the “Relative Activity” value [2] was 2.4%.

For `C[C@H](N)C(=O)O` [L-alanine], the “Relative Activity” value [5] was 100%.

`CSCC[C@H](N)C(=O)O` [L-Methionine] was tested, and the “Relative Activity” value [4] was 0.6%.

With xylose the “Relative Activity” value [2] was 8.9%.

With `CC(C)[C@H](N)C(=O)O` [L-Valine] the “Relative Activity” value [4] was 74%.

`OC[C@@H](O)[C@@H](O)[C@H](O)[C@@H](O)CO` [D-sorbitol] was tested, and the “Relative Activity” value [2] was 0.1%.

With `O=C(O)CC(=O)C(=O)O` [Oxoloacetate] the “Relative Activity” value [6] was 36%.

In the case of `CCCC[C@H](N)C(=O)O` [L-Norleucine], the “Relative Activity” value [4] is reported as 10%.

In the case of `CC(O)C(C)O` (centres unmarked) [2,3-Butanediol], the “Relative Activity” value [1] is reported as 52.6%.
